In ChEMBL document CHEMBL1125704, “Novel time-dependent inhibitors of human placental aromatase” (J Med Chem, 1991) one finds Ki data, which are given here for four compounds.

The assay addresses T1, Aromatase (Homo sapiens, UniProt P11511).
T1 sequence (P11511 whole entry): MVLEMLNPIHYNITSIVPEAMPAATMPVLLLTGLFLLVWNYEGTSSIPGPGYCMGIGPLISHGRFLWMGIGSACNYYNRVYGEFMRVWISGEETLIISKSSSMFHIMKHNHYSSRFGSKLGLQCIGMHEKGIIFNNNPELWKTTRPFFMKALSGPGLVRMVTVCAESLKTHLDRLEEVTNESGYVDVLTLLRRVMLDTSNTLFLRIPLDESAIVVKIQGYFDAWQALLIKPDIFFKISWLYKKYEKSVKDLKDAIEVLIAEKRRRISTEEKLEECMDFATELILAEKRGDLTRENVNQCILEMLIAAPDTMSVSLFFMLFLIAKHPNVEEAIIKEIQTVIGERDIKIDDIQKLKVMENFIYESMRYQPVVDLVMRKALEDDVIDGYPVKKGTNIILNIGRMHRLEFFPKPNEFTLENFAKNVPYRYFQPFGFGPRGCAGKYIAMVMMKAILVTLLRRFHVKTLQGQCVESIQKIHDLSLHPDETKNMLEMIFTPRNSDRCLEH
Briefly: Inhibition of binding to human Placental Cytochrome P450 19A1.

As usually defined, the Ki is a dissociation constant, usually derived from enzyme kinetics or from competition with a known ligand. Read a low Ki as higher affinity. In turn, `C[C@]12CCC3C(CCC4=CC(=O)[C@H]5C[C@H](O)[C@]43C5)C1CCC2=O` (single isomer, unassigned) had a Ki of 926 nM. The value for `C[C@]12CCC3C(CCC4=CC(=O)[C@H]5C[C@@H](O)[C@]43C5)C1CCC2=O` (single isomer, unassigned) was 870 nM; that for `C[C@]12CCC3C(CCC4=CC(=O)CC[C@@]43C(O)CBr)C1CCC2=O` (single isomer, unassigned; 11a) was 27 nM.

For `C[C@]12CCC3C(CCC4=CC(=O)[C@H]5CC[C@]43C5)C1CCC2=O` (some centres undefined), the Ki was 70 nM.
